In brackets after ≈: the same amount, converted by molar mass.
Assays:
Staphylococcus aureus [1] = assay: Antibacterial activity against methicillin-susceptible Staphylococcus aureus ATCC 29213 by broth dilution assay; assay type: functional
Staphylococcus aureus [2] = assay: Antibacterial activity against methicillin-resistant Staphylococcus aureus clinical isolate SA86 by broth dilution assay; assay type: functional

SMILES	MIC (Staphylococcus aureus [1])	MIC (Staphylococcus aureus [2])
CC[C@@H](C)[C@@H](NC(=O)[C@@H](CCC(N)=O)NC(=O)[C@H](CO)NC(=O)[C@@H](NC(=O)[C@@H](Cc1ccccc1)NC)[C@@H](C)CC)C(=O)N[C@H](C(=O)N[C@@H](CO)C(=O)N[C@H]1C(=O)N[C@@H](Cc2ccccc2)C(=O)N[C@@H](CCCN)C(=O)N[C@@H]([C@@H](C)CC)C(=O)O[C@H]1C)[C@@H](C)CC	≥ 32 µg/mL	≥ 32 µg/mL
CC[C@@H](C)[C@@H](NC(=O)[C@@H](CCC(N)=O)NC(=O)[C@H](CO)NC(=O)[C@@H](NC(=O)[C@@H](Cc1ccccc1)NC)[C@@H](C)CC)C(=O)N[C@H](C(=O)N[C@@H](CO)C(=O)N[C@H]1C(=O)N[C@@H](C)C(=O)N[C@@H](CCCN)C(=O)N[C@@H]([C@@H](C)CC)C(=O)O[C@H]1C)[C@@H](C)CC	2 µg/mL (≈ 1.66 µM)	2 µg/mL (≈ 1.66 µM)
CC[C@@H](C)[C@@H](NC(=O)[C@@H](CC(N)=O)NC(=O)[C@H](CO)NC(=O)[C@@H](NC(=O)[C@@H](Cc1ccccc1)NC)[C@@H](C)CC)C(=O)N[C@H](C(=O)N[C@@H](CO)C(=O)N[C@H]1C(=O)N[C@@H](C)C(=O)N[C@@H](CCCN)C(=O)N[C@@H]([C@@H](C)CC)C(=O)O[C@H]1C)[C@@H](C)CC	4 µg/mL (≈ 3.37 µM)	4 µg/mL (≈ 3.37 µM)
CC[C@@H](C)[C@@H](NC(=O)[C@@H](CCC(N)=O)NC(=O)[C@H](CCCCN)NC(=O)[C@@H](NC(=O)[C@@H](Cc1ccccc1)NC)[C@@H](C)CC)C(=O)N[C@H](C(=O)N[C@@H](CO)C(=O)N[C@H]1C(=O)N[C@@H](C)C(=O)N[C@@H](CCCN)C(=O)N[C@@H]([C@@H](C)CC)C(=O)O[C@H]1C)[C@@H](C)CC	4 µg/mL (≈ 3.22 µM)	8 µg/mL (≈ 6.43 µM)
CC[C@@H](C)[C@@H](NC(=O)[C@@H](CCC(N)=O)NC(=O)[C@H](CO)NC(=O)[C@@H](NC(=O)[C@@H](Cc1ccccc1)NC)[C@@H](C)O)C(=O)N[C@H](C(=O)N[C@@H](CO)C(=O)N[C@H]1C(=O)N[C@@H](C)C(=O)N[C@@H](CCCN)C(=O)N[C@@H]([C@@H](C)CC)C(=O)O[C@H]1C)[C@@H](C)CC	≥ 32 µg/mL	≥ 32 µg/mL
CC[C@@H](C)[C@@H](NC(=O)[C@@H](CCC(N)=O)NC(=O)[C@H](CO)NC(=O)[C@@H](NC(=O)[C@@H](Cc1ccccc1)NC)C(C)C)C(=O)N[C@H](C(=O)N[C@@H](CO)C(=O)N[C@H]1C(=O)N[C@@H](C)C(=O)N[C@@H](CCCN)C(=O)N[C@@H]([C@@H](C)CC)C(=O)O[C@H]1C)[C@@H](C)CC	8 µg/mL (≈ 6.73 µM)	8 to 16 µg/mL (≈ 6.73 to 13.5 µM)
CC[C@@H](C)[C@@H](NC(=O)[C@@H](CCC(N)=O)NC(=O)[C@H](CO)NC(=O)[C@@H](NC(=O)[C@@H](Cc1ccccc1)NC)[C@@H](C)CC)C(=O)N[C@H](C(=O)N[C@@H](CO)C(=O)N[C@H]1C(=O)N[C@@H](CCCN)C(=O)N[C@@H](CCCN)C(=O)N[C@@H]([C@@H](C)CC)C(=O)O[C@H]1C)[C@@H](C)CC	8 µg/mL (≈ 6.42 µM)	8 µg/mL (≈ 6.42 µM)
CC[C@@H](C)[C@@H](NC(=O)[C@@H](CCC(N)=O)NC(=O)[C@H](CO)NC(=O)[C@@H](NC(=O)[C@@H](C)NC)[C@@H](C)CC)C(=O)N[C@H](C(=O)N[C@@H](CO)C(=O)N[C@H]1C(=O)N[C@@H](C)C(=O)N[C@@H](CCCN)C(=O)N[C@@H]([C@@H](C)CC)C(=O)O[C@H]1C)[C@@H](C)CC	≥ 32 µg/mL	≥ 32 µg/mL
CC[C@H](C)[C@H](NC(=O)[C@@H](C)NC(=O)[C@@H](CCC(N)=O)NC(=O)[C@H](CO)NC(=O)[C@@H](NC(=O)[C@@H](Cc1ccccc1)NC)[C@@H](C)CC)C(=O)N[C@@H](CO)C(=O)N[C@H]1C(=O)N[C@@H](C)C(=O)N[C@@H](CCCN)C(=O)N[C@@H]([C@@H](C)CC)C(=O)O[C@H]1C	≥ 32 µg/mL	≥ 32 µg/mL
CC[C@@H](C)[C@@H](NC(=O)[C@@H](CCC(N)=O)NC(=O)[C@H](CO)NC(=O)[C@@H](NC(=O)[C@H](Cc1ccccc1)NC)[C@@H](C)CC)C(=O)N[C@H](C(=O)N[C@@H](CO)C(=O)N[C@H]1C(=O)N[C@@H](C)C(=O)N[C@@H](CCCN)C(=O)N[C@@H]([C@@H](C)CC)C(=O)O[C@H]1C)[C@@H](C)CC	≥ 32 µg/mL	≥ 32 µg/mL
CC[C@@H](C)[C@@H](NC(=O)[C@H](CCC(N)=O)NC(=O)[C@H](CO)NC(=O)[C@@H](NC(=O)[C@@H](Cc1ccccc1)NC)[C@@H](C)CC)C(=O)N[C@H](C(=O)N[C@@H](CO)C(=O)N[C@H]1C(=O)N[C@@H](C)C(=O)N[C@@H](CCCN)C(=O)N[C@@H]([C@@H](C)CC)C(=O)O[C@H]1C)[C@@H](C)CC	≥ 32 µg/mL	≥ 32 µg/mL
CC[C@@H](C)[C@@H](NC(=O)[C@@H](CCC(N)=O)NC(=O)[C@H](CO)NC(=O)[C@@H](NC(=O)[C@@H](Cc1ccccc1)NC)[C@@H](C)CC)C(=O)N[C@@H](Cc1ccccc1)C(=O)N[C@@H](CO)C(=O)N[C@H]1C(=O)N[C@@H](C)C(=O)N[C@@H](CCCN)C(=O)N[C@@H]([C@@H](C)CC)C(=O)O[C@H]1C	≥ 32 µg/mL	≥ 32 µg/mL
CC[C@@H](C)[C@@H](NC(=O)[C@@H](CCC(N)=O)NC(=O)[C@H](C)NC(=O)[C@@H](NC(=O)[C@@H](Cc1ccccc1)NC)[C@@H](C)CC)C(=O)N[C@H](C(=O)N[C@@H](CO)C(=O)N[C@H]1C(=O)N[C@@H](C)C(=O)N[C@@H](CCCN)C(=O)N[C@@H]([C@@H](C)CC)C(=O)O[C@H]1C)[C@@H](C)CC	4 µg/mL (≈ 3.37 µM)	4 µg/mL (≈ 3.37 µM)
CC[C@@H](C)[C@@H](NC(=O)[C@@H](CCC(N)=O)NC(=O)[C@H](CO)NC(=O)[C@@H](NC(=O)[C@@H](Cc1ccccc1)NC)[C@@H](C)CC)C(=O)N[C@H](C(=O)N[C@@H](CO)C(=O)N[C@H]1C(=O)NCC(=O)N[C@@H](CCCN)C(=O)N[C@@H]([C@@H](C)CC)C(=O)O[C@H]1C)[C@@H](C)CC	≥ 32 µg/mL	≥ 32 µg/mL
CC[C@@H](C)[C@@H](NC(=O)[C@@H](CCC(N)=O)NC(=O)[C@H](CO)NC(=O)[C@H](NC(=O)[C@@H](Cc1ccccc1)NC)[C@@H](C)CC)C(=O)N[C@H](C(=O)N[C@@H](CO)C(=O)N[C@H]1C(=O)N[C@@H](C)C(=O)N[C@@H](CCCN)C(=O)N[C@@H]([C@@H](C)CC)C(=O)O[C@H]1C)[C@@H](C)CC	≥ 32 µg/mL	≥ 32 µg/mL
CC[C@H](C)[C@H](NC(=O)[C@@H](Cc1ccccc1)NC)C(=O)N[C@@H](CO)C(=O)N[C@H](CCC(N)=O)C(=O)N[C@@H](C(=O)N[C@H](C(=O)N[C@@H](CO)C(=O)N[C@H]1C(=O)N[C@@H](C)C(=O)N[C@@H](CCCN)C(=O)N[C@@H]([C@@H](C)CC)C(=O)O[C@H]1C)[C@@H](C)CC)C(C)C	8 to 16 µg/mL (≈ 6.73 to 13.5 µM)	16 µg/mL (≈ 13.5 µM)
CC[C@@H](C)[C@@H](NC(=O)[C@@H](CCC(N)=O)NC(=O)[C@H](CO)NC(=O)[C@@H](NC(=O)[C@H](N)Cc1ccccc1)[C@@H](C)CC)C(=O)N[C@H](C(=O)N[C@@H](CO)C(=O)N[C@H]1C(=O)N[C@@H](C)C(=O)N[C@@H](CCCN)C(=O)N[C@@H]([C@@H](C)CC)C(=O)O[C@H]1C)[C@@H](C)CC	16 µg/mL (≈ 13.5 µM)	16 µg/mL (≈ 13.5 µM)
CC[C@@H](C)[C@@H](NC(=O)[C@@H](CCC(N)=O)NC(=O)[C@H](CO)NC(=O)[C@@H](NC(=O)[C@@H](Cc1ccccc1)NC)[C@@H](C)CC)C(=O)N[C@@H](CC(C)C)C(=O)N[C@@H](CO)C(=O)N[C@H]1C(=O)N[C@@H](C)C(=O)N[C@@H](CCCN)C(=O)N[C@@H]([C@@H](C)CC)C(=O)O[C@H]1C	≥ 32 µg/mL	≥ 32 µg/mL
CC[C@@H](C)[C@@H](NC(=O)[C@@H](CCC(N)=O)NC(=O)[C@H](CO)NC(=O)[C@@H](NC(=O)[C@@H](Cc1ccccc1)NC)[C@@H](C)CC)C(=O)N[C@@H](C)C(=O)N[C@@H](CO)C(=O)N[C@H]1C(=O)N[C@@H](C)C(=O)N[C@@H](CCCN)C(=O)N[C@@H]([C@@H](C)CC)C(=O)O[C@H]1C	≥ 32 µg/mL	≥ 32 µg/mL
CC[C@@H](C)[C@@H](NC(=O)[C@@H](CCC(N)=O)NC(=O)[C@H](CO)NC(=O)[C@@H](NC(=O)[C@@H](Cc1ccccc1)NC)[C@@H](C)CC)C(=O)N[C@H](C(=O)N[C@@H](CO)C(=O)N[C@H]1C(=O)N[C@H](C)C(=O)N[C@@H](CCCN)C(=O)N[C@@H]([C@@H](C)CC)C(=O)O[C@H]1C)[C@@H](C)CC	≥ 32 µg/mL	≥ 32 µg/mL
CC[C@@H](C)[C@@H](NC(=O)[C@@H](CCC(N)=O)NC(=O)[C@H](CC(N)=O)NC(=O)[C@@H](NC(=O)[C@@H](Cc1ccccc1)NC)[C@@H](C)CC)C(=O)N[C@H](C(=O)N[C@@H](CO)C(=O)N[C@H]1C(=O)N[C@@H](C)C(=O)N[C@@H](CCCN)C(=O)N[C@@H]([C@@H](C)CC)C(=O)O[C@H]1C)[C@@H](C)CC	16 µg/mL (≈ 13 µM)	≥ 32 µg/mL
CC[C@@H](C)[C@@H](NC(=O)[C@@H](CCC(N)=O)NC(=O)[C@H](CO)NC(=O)[C@@H](NC(=O)[C@@H](Cc1ccccc1)NC)[C@@H](C)CC)C(=O)N[C@H](C(=O)N[C@@H](CO)C(=O)N[C@H]1C(=O)N[C@@H](C)C(=O)N[C@@H](CCCN)C(=O)N[C@@H]([C@@H](C)CC)C(=O)O[C@H]1C)C(C)C	≥ 32 µg/mL	≥ 32 µg/mL
CC[C@@H](C)[C@@H](NC(=O)[C@@H](CCC(N)=O)NC(=O)[C@H](CO)NC(=O)[C@H](Cc1ccccc1)NC(=O)[C@@H](Cc1ccccc1)NC)C(=O)N[C@H](C(=O)N[C@@H](CO)C(=O)N[C@H]1C(=O)N[C@@H](C)C(=O)N[C@@H](CCCN)C(=O)N[C@@H]([C@@H](C)CC)C(=O)O[C@H]1C)[C@@H](C)CC	≥ 32 µg/mL	≥ 32 µg/mL
CC[C@@H](C)[C@@H](NC(=O)[C@@H](CCC(N)=O)NC(=O)[C@H](CO)NC(=O)[C@H](CC(C)C)NC(=O)[C@@H](Cc1ccccc1)NC)C(=O)N[C@H](C(=O)N[C@@H](CO)C(=O)N[C@H]1C(=O)N[C@@H](C)C(=O)N[C@@H](CCCN)C(=O)N[C@@H]([C@@H](C)CC)C(=O)O[C@H]1C)[C@@H](C)CC	4 to 8 µg/mL (≈ 3.33 to 6.65 µM)	4 to 8 µg/mL (≈ 3.33 to 6.65 µM)
CC[C@@H](C)[C@@H](NC(=O)[C@@H](CCC(N)=O)NC(=O)[C@H](CO)NC(=O)[C@@H](NC(=O)[C@@H](Cc1ccccc1)NC)[C@@H](C)CC)C(=O)N[C@H](C(=O)N[C@@H](CO)C(=O)N[C@H]1C(=O)N[C@@H](C)C(=O)N[C@@H](CCNC(=N)N)C(=O)N[C@@H]([C@@H](C)CC)C(=O)O[C@H]1C)[C@@H](C)CC	8 to 16 µg/mL (≈ 6.5 to 13 µM)	16 µg/mL (≈ 13 µM)
CC[C@@H](C)[C@@H](NC(=O)[C@@H](CCC(N)=O)NC(=O)[C@H](CO)NC(=O)[C@H](C)NC(=O)[C@@H](Cc1ccccc1)NC)C(=O)N[C@H](C(=O)N[C@@H](CO)C(=O)N[C@H]1C(=O)N[C@@H](C)C(=O)N[C@@H](CCCN)C(=O)N[C@@H]([C@@H](C)CC)C(=O)O[C@H]1C)[C@@H](C)CC	≥ 32 µg/mL	≥ 32 µg/mL
